For data set [1], the system named is mice treated with aconitin. Briefly: animal or person. The conditions noted are these: Mus musculus, read-out: Delay in the appearance time of arrhythmia. Format: in vivo. How it is done: Arrhytmia was induced in male mice, weighing 20 to 25 g, by treating them continuously, at a rate of 0.2 ml/min with an infusion containing 5 μg/kg of aconitin. The test compound was administered to the animals either intraperitoneally (by injecting it into the abdominal cavity) 15 minutes before the start of the infusion, or orally 60 minutes before the onset of the infusion. The time of the appearance of arrhythmia was recorded, and the percentage of delay was calculated in relation to the data obtained in the controls, pretreated with 0.9 percent sodium chloride solution only [B. Vargaftig and J. L. Coignet: European J. of Pharmacol. 6, 49 to 55 (1969); N. K. Dadkar and B. K. Bhattachariya: Arch. Int. Pharmacodyn. 212, 297 to 301 (1974); D. U. Nwagwu, T. L. Holcslaw and S. J. Stohs: Arch. Int. Pharmacodyn. 229, 219 to 226 (1977)].

For data set [2], the system named is anaesthesized cats, fibrillation threshold of the heart. Briefly: Determination of the fibrillation threshold in anaesthetized cats. Format: in vivo. The settings on record: cat. An excerpt:
The chests of the cats were opened under chloralose-urethane anaesthesia, a bipolar stimulating electrode was fixed onto the heart, and the heart was stimulated electrically with a frequency of 20 Hz, under continuously increasing current strength, until a fibrillo-flattern could be observed. This current strength was considered as the fibrillation threshold of the animal.

The next data set in a line: in vivo. The settings on record: mouse.
For data set [3], the system named is left auricle of isolated rabbit heart. Briefly: Electrophysiological tests in the isolated rabbit heart, left auricle. The settings on record: 2.0 mg/l, n = 4. Here is the method:
(§1) Hearts of rabbits of both sexes, weighing 1 to 2 kg, were removed, the right and left auricles and a segment of the right ventricle were prepared and placed into a vessel filled with nutrient solution. Bipolar platinum electrodes (a stimulating electrode and a lead electrode) were placed on the organ strips, and the electric stimulus threshold and the speed of impulse conduction were measured. The effective refractory period was determined on the basis of the maximal driving frequency.

Data set [4] concerns right ventricle of isolated rabbit heart. Briefly: Electrophysiological tests in the isolated rabbit heart, right ventricle. The conditions noted are these: 2.0 mg/l, n = 4. How it is done:
as §1

[5] abbreviates: 2.0 mg/kg i.v., 2 min following treatment.
The mark [6] stands for this setting: 2.0 mg/kg i.v., 10 min following treatment.
Setting [7] is: 2.0 mg/kg i.v., 20 min following treatment.
Setting [8] is: 4.0 mg/kg i.v., 2 min following treatment.
Where [9] appears, read: 4.0 mg/kg i.v., 10 min following treatment.
[10] abbreviates: 4.0 mg/kg i.v., 20 min following treatment.
The mark [11] stands for this setting: 20 mg/kg i.d., 10 minutes following treatment.
Setting [12] is: 20 mg/kg i.d., 20 minutes following treatment.
The mark [13] stands for this setting: 20 mg/kg i.d., 30 minutes following treatment.
The mark [14] stands for this setting: 20 mg/kg i.d., 40 minutes following treatment.
Where [15] appears, read: 20 mg/kg i.d., 50 minutes following treatment.
Setting [16] is: 20 mg/kg i.d., 60 minutes following treatment.
Where [17] appears, read: 20 mg/kg i.d., 70 minutes following treatment.
[18] abbreviates: 20 mg/kg i.d., 80 minutes following treatment.
Where [19] appears, read: 20 mg/kg i.d., 90 minutes following treatment.
[20] abbreviates: 20 mg/kg i.d., 100 minutes following treatment.

SMILES strings stand for the structures. Structures can show the parent of a compound that is named as a salt. Where two headings read alike, the source gives them in different places.

`Cc1cccc(C)c1NNC(=N)N(C)C` [Example 5]: the change in vivo at 25 mg/kg in data set [1] (ip) came to 113%. Also, the change in vivo at 50 mg/kg in data set [1] (ip) came out at 155%. Besides, in data set [1] (po), the change in vivo at 100 mg/kg came to 111%. The “Percentual change in the fibrillation threshold” value (“Percentual change” below) is “+18.75%” in data set [2] (0.5 mg/kg i.v., 2 min following treatment); “+40.75%” in data set [2] (0.5 mg/kg i.v., 10 min following treatment); “+37.6%” in data set [2] (0.5 mg/kg i.v., 20 min following treatment); “+35.2%” in data set [2] (1.0 mg/kg i.v., 2 min following treatment); “+55.2%” in data set [2] (1.0 mg/kg i.v., 10 min following treatment); “+48.4%” in data set [2] (1.0 mg/kg i.v., 20 min following treatment). The “Percentual change” value in data set [2] (setting [5]) is on record as “+101.1%”; in data set [2] (setting [6]), “+93.0%”; in data set [2] (setting [7]) it was “+94.15%”; in data set [2] (setting [8]), “+153.3%”; in data set [2] (setting [9]), “+125.65%”; in data set [2] (setting [10]) it was “+124.0%”. Further, the “Percentual change” value in data set [2] (8.0 mg/kg i.v., 2 min following treatment) was “+392.8%”; in data set [2] (8.0 mg/kg i.v., 10 min following treatment) it was “+354.5%”; in data set [2] (8.0 mg/kg i.v., 20 min following treatment), “+310.25%”; in data set [2] (setting [11]), “+22.2%”; in data set [2] (setting [12]) it was “+29.0%”; in data set [2] (setting [13]), “+94.0%”. Further, the “Percentual change” value is given as “+103.7%” in data set [2] (setting [14]); “+100.4%” in data set [2] (setting [15]); “+105.8%” in data set [2] (setting [16]); “+100.3%” in data set [2] (setting [17]); “+121.5%” in data set [2] (setting [18]); “+132.8%” in data set [2] (setting [19]). In data set [2] (setting [20]), the “Percentual change” value was “+132.3%”. For the same compound, the results for the LD50 in the data set “in vivo” (ip) and in the data set “in vivo” (po) were 130 mg/kg and 400 mg/kg, respectively.
On to `CN(C)C(=N)NNc1c(Cl)cccc1Cl` [Example 2, 1-(2,6-Dichlorophenyl)-4,4-dimethyl-aminoguanidine], for which, in data set [1] (ip), the change in vivo at 25 mg/kg amounted to 79% and the change in vivo at 50 mg/kg is 156%. Also, in data set [1] (po), the change in vivo at 25 mg/kg turned out to be 39%, the change in vivo at 50 mg/kg was determined as 71% and the change in vivo at 100 mg/kg is 150%. This compound also gave a median lethal dose (LD50) in “in vivo” (ip) of 73 mg/kg. Further, the LD50 in “in vivo” (po) stood at 220 mg/kg.
Consider `CN(C)C(=N)NNc1cccc(Cl)c1` [Example 9], for which, in data set [1] (ip), the change in vivo at 50 mg/kg worked out at 171%.
In the case of `Cc1ccccc1NNC(=N)N1CCCC1` [Example 7], in data set [1] (ip), the change in vivo at 25 mg/kg came to 50% and the change in vivo at 50 mg/kg worked out at 128%. For the same compound, in data set [1] (po), the change in vivo at 50 mg/kg came to 54% and the change in vivo at 100 mg/kg stood at 137%.
Turning to `CC1CCCCN1C(=N)NNc1ccccc1Cl` (stereo not drawn) [Example 8], in data set [1] (ip), the change in vivo at 5 mg/kg is 32% and the change in vivo at 10 mg/kg came to 110%.
Turning to `Cc1cccc(C)c1NNC(=N)N1CCCC1` [Example 11], the “Percentual change” value in data set [2] (setting [5]) is recorded as “+130.6%”; in data set [2] (setting [6]), “+149.0%”; in data set [2] (setting [7]), “+163.3%”; in data set [2] (setting [8]) it was “+176.0%”; in data set [2] (setting [9]), “+328.0%”; in data set [2] (setting [10]) it was “+316.0%”. Also, the “Percentual change” value is listed as “+5.8%” in data set [2] (setting [11]); “+22.0%” in data set [2] (setting [12]); “+43.8%” in data set [2] (setting [13]); “+79.6%” in data set [2] (setting [14]); “+115%” in data set [2] (setting [15]); “+118%” in data set [2] (setting [16]). Besides, the “Percentual change” value in data set [2] (setting [17]) was “+141%”; in data set [2] (setting [18]) it was “+198%”; in data set [2] (setting [19]), “+209.5%”; in data set [2] (setting [20]) it was “+272.5%”.
Consider `Cc1cccc(C)c1OCC(C)N.Cl` (stereo not drawn) [Mexiletin, 1-(2,6-Dimethylphenoxy)-2-aminopropane hydrochloride, reference compound], for which, in data set [3], the “Change in conduction time” value is given as “+24%”, the “Change in electric stimulus threshold” value was determined as 36% and the “Change in max. driving frequency” value is recorded as -32%. In data set [1] (ip), the change in vivo at 5 mg/kg was 3.5%, the change in vivo at 10 mg/kg stood at 7.7%, the change in vivo at 25 mg/kg worked out at 33% and the change in vivo at 50 mg/kg stood at 83%. For the same compound, the change in vivo at 75 mg/kg in data set [1] (ip) is 162%. Also, the change in vivo at 100 mg/kg in data set [1] (po) came out at 93%. For the same compound, in data set [4], the “Change in conduction time” value is recorded as “+11%”, the “Change in electric stimulus threshold” value is recorded as “+6%” and the “Change in max. driving frequency” value is on record as -28%. Further, the “Percentual change” value in data set [2] (10.0 mg/kg i.v., 10 min following treatment) is “+161.2%”. Also, the “Percentual change” value in data set [2] (10.0 mg/kg i.v., 20 min following treatment) was “+92.0%”.
For `Cc1ccccc1NNC(=N)N1CCOCC1` [Example 22], the change in vivo at 50 mg/kg in data set [1] (ip) was determined as 100%.
Turning to `C=C[C@H]1C[N@@]2CC[C@H]1C[C@@H]2[C@@H](O)c1ccnc2ccc(OC)cc12` [Quinidine, quinidine, reference compound], the “Percentual change” value in data set [2] (10 mg/kg i.d., 10 minutes following treatment) was “+0.4%”; in data set [2] (10 mg/kg i.d., 20 minutes following treatment) it was “+26.7%”; in data set [2] (10 mg/kg i.d., 30 minutes following treatment), “+58.5%”; in data set [2] (10 mg/kg i.d., 40 minutes following treatment), “+48.5%”; in data set [2] (10 mg/kg i.d., 50 minutes following treatment), “+32.1%”; in data set [2] (10 mg/kg i.d., 70 minutes following treatment), “+9.5%”. Also, the “Percentual change” value in data set [2] (10 mg/kg i.d., 80 minutes following treatment) was “+8.8%”; in data set [2] (10 mg/kg i.d., 90 minutes following treatment), “+3.8%”; in data set [2] (10 mg/kg i.d., 100 minutes following treatment), 0.0%.
With `CCN(CC)C(=N)NNc1ccccc1C` [Example 4, 1-(2-Methyl-phenyl)-4,4-diethyl-aminoguanidine hydrochloride], in data set [1] (ip), the change in vivo at 5 mg/kg worked out at 28% and the change in vivo at 10 mg/kg amounted to 77%.
Turning to `CCc1cccc(C)c1NNC(=N)N(C)C` [Example 21], in data set [1] (ip), the change in vivo at 25 mg/kg worked out at 110% and the change in vivo at 50 mg/kg was 86%.
Turning to `CCN(CC)C(=N)NNc1ccccc1Cl` [Example 3, 1-(2-Chlorophenyl)-4,4-diethyl-aminoguanidine hydrochloride], in data set [1] (ip), the change in vivo at 10 mg/kg amounted to 108% and the change in vivo at 20 mg/kg worked out at 68%.
Take `CN(C)C(=N)NNc1ccccc1Cl` [Example 6]: in data set [1] (ip), the change in vivo at 50 mg/kg is 114%. For the same compound, the change in vivo at 100 mg/kg in data set [1] (po) is 70%.
For `CN(C)C(=N)NNc1ccccc1` [Example 18], the change in vivo at 100 mg/kg in data set [1] (po) is 74%.

As a reminder, the LD50 is the dose at which mortality reaches 50%. A low value points to a more toxic substance.

The record behind these values is US4731383A, “Aminoguanidine compounds, their compositions and pharmaceutical uses” (Biogal Gyogyszergyar, priority 1983, dated 1988).
